Test results as given in the NIST ThermoML archive (doi:10.1021/je900785z).
± gives the expanded uncertainty stated by the source.

Settings: for mass density: 298.15 K, 101.33 kPa, Liquid

Structure (SMILES)	Normal melting temperature (Crystal, visual observation)	mass density
O=C1CCCCCN1 [1-aza-2-cycloheptanone]	69.06 ± 0.39 °C	
CC(C)CC(C)(C)C [2,2,4-trimethylpentane]		687.757 ± 0.84 kg/m3
CCCCCCC [heptane]		679.627 ± 0.85 kg/m3
CCCCCCCC [octane]		698.636 ± 1.3 kg/m3

The next lines start with the values.

Normal melting temperature (Crystal, visual observation)	mass density	Structure (SMILES)
	726.357 ± 1.2 kg/m3	CCCCCCCCCC [decane]
	714.064 ± 1.3 kg/m3	CCCCCCCCC [nonane]
